Patent US10570168B2, “2′ and/or 5′ amino-acid ester phosphoramidate 3′-deoxy adenosine derivatives as anti- cancer compounds” (NuCana plc, priority 2014, dated 2020)
Like-named read-outs stand apart in the source and are kept apart here.

What was measured:
[1] = test system: CCRF-CEM (TdT positive CEM); assay: ATP (ViaLight plus) cytotoxicity assay; type: cell-based, Human; conditions: for IC50: Homo sapiens, CCRF-CEM
Experimental: (§1) Certain compounds of the invention were subjected to further studies to test the cytotoxic activity of certain compounds of the invention and also to measure their activity against 4 haematological cancer cell lines • TdT positive CEM (Human ALL) • TdT negative K562 (Human CML) • TdT negative H1-60 (Human ANLL) • RL (CRL-2261) non-HD lymphoma • The concentrations of the active metabolite dATP (Cordycepin triphosphate) in these cell lines was also measured. • The cytotoxic activity and the intracellular 3′-dATP concentrations were also studied in the presence of hENT1, Adenosine Kinase (AK) and Adenosine Deaminase pharmacological inhibitors in CEM and RL cancer cell lines. Said inhibitors that mimic known cancer resistance mechanisms. Methods Cell Culture
(§2) HL-60 (ATCC® CCL-240™), K562 (ATCC® CCL-243™), CCRF-CEM (ATCC® CRM-CCL-119™) and RL (ATCC® CRL-2261™) leukaemia cell lines, obtained from the American Type Culture Collection (ATCC), Middlesex. HL-60 and K562 cell lines are deoxynucleotidyl transferase-negative (TdT-ve), whereas CCRF-CEM cell line is TdT+ve.
(§3) HL-60, K562, CCRF-CEM and RL cell lines were cultured in RPMI-1640 medium (Sigma Aldrich, UK), which were supplemented with 10% Fetal Bovine Serum (FBS) (PAA Laboratories), 1% amphotericin B (5.5 ml) and 1% penicillin/streptomycin (5.5 ml) (PAA Laboratories) and grown in flasks at 37° C. incubator with 5% CO2.
(§4) The amount of ATP was used as a measurement of cell number and cell viability. ATP ViaLight™ plus assay kit (Lonza, USA: Product No. LT07-121) to detect ATP in cells treated in luminescence compatible 96 well plates (initial concentration of cells was 1×10^4 cells/well) with cordycepin and ProTides at concentrations of: 0, 0.1, 0.5, 1, 5 and 10 μM, followed by incubation for 72 hours at 37° C. incubator with 5% CO2. For inhibitor studies, 10 μM of NBTI or 1 μM EHNA or A-134974 was added and left for 5 minutes before adding the drugs (see section 5 for inhibitor details).
(§5) After incubation, 50 μl of cell lysis reagent was added to the 96 well plates to release the intracellular ATP, followed by 100 μl of ATP monitoring reagent (AMR). The luminescent values of each well were determined using FLUOstar OPTIMA microplate reader (BMG Labtech) which convert ATP into light by using luciferase enzyme. Therefore, the amount of luminescence produced was directly proportional to the amount of ATP.
Cell lines were treated in the same way as described above but before treatment with drugs, a number of inhibitors were added: • 1) Nitrobenzylthioinosine (NBTI) (Sigma-Aldrich, St. Louis, Mo., product # N2255) blocks nucleoside transporters • 2) EHNA hydrochloride (Sigma-Aldrich, St. Louis, Mo., product # E114) blocks adenosine deaminase • 3) Adenosine kinase inhibitor A-134974 dihydrochloride hydrate (Sigma-Aldrich, St. Louis, Mo., product # A2846): blocks adenosine kinase
(§6) The dose-response curves of cytotoxicity of the drugs was determined using non-linear regression analysis of percentage cell viability versus concentration and EC50 values were obtained. The intracellular assay was conducted in five replicates for each condition. Intracellular assay was determined using paired t test (two-tailed) analysis of 3′ATP/ATP concentration and p-values were obtained. For all the analysis, Prism Software program (GraphPad Software) was used and Microsoft Powerpoint® 2013 was used to plot the results.

HL-60 (TdT negative) = assay: ATP (ViaLight plus) cytotoxicity assay; type: cell-based, Human; conditions: for IC50: Homo sapiens; for (FD) fold difference compared to Cordycepin = Cordycepin IC50/ProTide IC50: HL-60
Experimental: as §1, §2, §3, §4, §5, §6

K562 (TdT negative) = assay: ATP (ViaLight plus) cytotoxicity assay; type: cell-based, Human; conditions: for IC50: Homo sapiens; for (FD) fold difference compared to Cordycepin = Cordycepin IC50/ProTide IC50: K562
Experimental: as §1, §2, §3, §4, §5, §6

RPMI-8226 = assay: Solid tumour and haematological malignancy assay (CellTiterGlo); type: cell-based; conditions: Homo sapiens; for IC50: read-out: IC50 (absolute IC50)
Outline: (§7)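 Cells were treated in duplicate with a 9-point, 3.16-fold dilution series for about 72 h under standard growth conditions. Final concentrations ran from […] to 19.9 nM, with 0.5% DMSO. Viability was read by CellTiter-Glo luminescence.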

BxPC-3 = assay: as above; type: cell-based; conditions: Homo sapiens, read-out: IC50 (absolute IC50)
Outline: as §7

RL = assay: as above; type: cell-based; conditions: Homo sapiens; for IC50: read-out: IC50 (absolute IC50); for Emax: read-out: MI %
Outline: as §7

Z138 = assay: as above; type: cell-based; conditions: Homo sapiens; for IC50: read-out: IC50 (absolute IC50)
Outline: as §7

NCI-H929 = assay: as above; type: cell-based; conditions: Homo sapiens; for IC50: read-out: IC50 (absolute IC50); for Emax: read-out: MI %
Outline: as §7

MV4-11 = assay: as above; type: cell-based; conditions: Homo sapiens; for IC50: read-out: IC50 (absolute IC50); for Emax: read-out: MI %
Outline: as §7

| Structure (SMILES) | (FD) fold difference compared to control ([1]; CEM, IC50 with AK inhibitor) | (FD) fold difference compared to control ([1]; CEM, IC50 with NBTI) | (FD) fold difference compared to Cordycepin = Cordycepin IC50/ProTide IC50 ([1]; CEM (TdT+ve)) | IC50 ([1]; 72 h, CEM (TdT+ve), 72 hours) [µM] | (FD) fold difference compared to Cordycepin = Cordycepin IC50/ProTide IC50 (HL-60 (TdT negative)) | IC50 (HL-60 (TdT negative); HL-60, 72 h) [µM] | IC50 (K562 (TdT negative); K562, 72 h) [µM] | (FD) fold difference compared to Cordycepin = Cordycepin IC50/ProTide IC50 (K562 (TdT negative)) | IC50 (RPMI-8226; RPMI-8226, 72 h) [µM] | IC50 (BxPC-3; BXPC-3, 72 h) [µM] | IC50 (RL; 72 h) [µM] | IC50 (Z138; Z-138, 72 h) [µM] | IC50 (NCI-H929; NCI-H929, 72 h) [µM] | IC50 (MV4-11; MV4-11, 72 h) [µM] | also measured |
| --- | --- | --- | --- | --- | --- | --- | --- | --- | --- | --- | --- | --- | --- | --- | --- |
| Nc1ncnc2c1ncn2[C@@H]1O[C@H](CO)C[C@H]1O [Cordycepin, 3′-deoxyadenosine, reference compound] | (3) | (5) | – | – | – | – | – | – | – | – | – | – | – | – | IC50 ([1]; 72 h, CEM (TdT+ve), 72 hours, read-out: IC50): 19.5 µM; IC50 ([1]; CEM, Control (no inhibitor), read-out: IC50): 11.5 µM; IC50 ([1]; CEM, with AK (adenosine kinase inhibitor A-134974, 1 μM), read-out: IC50): 29.2 µM; IC50 ([1]; CEM, with EHNA 1 μM (adenosine deaminase blocker), read-out: IC50): 0.7 µM; IC50 ([1]; CEM, with NBTI 10 μM (nucleoside transporter blocker), read-out: IC50): 57.7 µM; IC50 (HL-60 (TdT negative); HL-60, 72 hours, read-out: IC50): 11.4 µM; IC50 (K562 (TdT negative); K562, 72 hours, read-out: IC50): 10.9 µM; IC50 (RPMI-8226; RPMI-8226, 72 hr): > 100 µM; Emax (RPMI-8226; RPMI-8226, 72 hr, read-out: MI %): 1%; IC50 (BxPC-3; BxPC-3, 72 hr): > 100 µM; IC50 (RL; 72 hr): > 100 µM; Emax (RL; 72 hr): 17%; IC50 (Z138; Z-138, Z138, 72 hr): 5 to 15 µM; Emax (Z138; Z-138, Z138, 72 hr, read-out: MI %): 95%; IC50 (NCI-H929; NCI-H929, 72 hr): > 100 µM; Emax (NCI-H929; NCI-H929, 72 hr): 24%; IC50 (MV4-11; MV4-11, 72 hr): > 100 µM; Emax (MV4-11; MV4-11, 72 hr): 1% |
| COC(=O)C(C)(C)NP(=O)(OC[C@@H]1C[C@@H](O)[C@H](n2cnc3c(N)ncnc32)O1)Oc1cccc2ccccc12 (stereo partly drawn) [E, Methyl 2-(((((2S,4R,5R)-5-(6-amino-9H-purin-9-yl)-4-hydroxytetrahydrofuran-2-yl)-methoxy)(naphthalen-1-yloxy)phosphoryl)amino)-2-methylpropanoate] | (1) | (2) | (2) | 10 | (1) | 10.2 | 13.9 | (1) | 15 to 100 | 15 to 100 | 5 to 15 | 15 to 100 | 15 to 100 | 5 to 15 | (FD) fold difference compared to control ([1]; CEM, IC50 with EHNA): (1); IC50 ([1]; CEM, Control (no inhibitor)): 9.9 µM; IC50 ([1]; CEM, with AK (adenosine kinase inhibitor A-134974, 1 μM)): 10.3 µM; IC50 ([1]; CEM, with EHNA 1 μM (adenosine deaminase blocker)): 13.4 µM; IC50 ([1]; CEM, with NBTI 10 μM (nucleoside transporter blocker)): 17.1 µM |
| CCOC(=O)CCc1ccccc1OP(=O)(N[C@@H](C)C(=O)OCc1ccccc1)OC[C@@H]1C[C@@H](O)[C@H](n2cnc3c(N)ncnc32)O1 (stereo partly drawn) [F, (2S)-benzyl 2-(((((2S,4R,5R)-5-(6-amino-9H-purin-9-yl)-4-hydroxytetrahydrofuran-2-yl)methoxy)(2-(3-ethoxy-3-oxopropyl)phenoxy)phosphoryl)amino)propanoate] | – | – | (5) | 4.3 | (1) | 8.3 | 6.3 | (2) | 15 to 100 | 15 to 100 | 5 to 15 | 15 to 100 | 5 to 15 | 0.1 to 5 | Emax (RL; 72 h): 90%; Emax (NCI-H929; NCI-H929, 72 h): 100%; Emax (MV4-11; MV4-11, 72 h): 100% |
